Measurements taken from patent US8772268B2, “Bisphosphonamidate prodrugs and uses thereof” (The Johns Hopkins University, priority 2010, dated 2014).
Several values for one entry are separate records, joined by “and”; a condition that tells them apart may be missing. Identical values can stand only once.

Columns and labels:
[1] = tested on: RXF 393; assay: NCI-60 DTP Human Tumor Cell Line Screen; assay type: cell-based; conditions: RXF 393, Renal Cancer, 48 h
[2] = tested on: MDA-MB-453 (breast) cancer cell line; assay: MTS cell proliferation assay, MDA-MB-453; assay type: cell-based
Experimental: Cell proliferation was determined using the CellTiter 96 Aqueous One Solution Cell Proliferation Assay MTS assay. A549 NSCLC cells were plated at 1.5×10^3 cells per well in flat bottom 96 well plates in 99 μL of media and allowed to adhere overnight. The drugs were serially diluted in 100% DMSO. For each drug treatment group, 1 μL of a 100× stock solution was added to each well for a final DMSO concentration of 1%. Cells were treated for 24, 48 or 72 hours. Cells were incubated with MTS dye (20 μL well^−1) for 40 min to 2 h. Absorbance at 490 nm was determined using a SpectraMax M2 (Molecular Devices) plate reader. The percent cell proliferation was calculated by converting the experimental absorbance to percentage of control, which was then plotted vs. drug concentration. The IC50 values were determined using a non-linear dose-response analysis in GraphPad Prism version 4.0. The IC50 is defined as the concentration of drug needed to cause a 50% decrease in proliferation compared to vehicle control.
The activity of Clodronate prodrug (14) was tested against other cell lines, include prostate (PIP3) and breast (MDA-MB-453) cancer cells lines. Cell proliferation was determined using the CellTiter 96 Aqueous One Solution Cell Proliferation Assay MTS assay as discussed above. Results are shown in FIG. 22 and in the table below.

[3] = tested on: SN12C; assay: NCI-60 DTP Human Tumor Cell Line Screen; assay type: cell-based; conditions: Renal Cancer, 48 h
[4] = tested on: CAKI-1; assay: NCI-60 DTP Human Tumor Cell Line Screen; assay type: cell-based; conditions: CAKI-1, Renal Cancer, 48 h
[5] = tested on: T-47D; assay: NCI-60 DTP Human Tumor Cell Line Screen; assay type: cell-based; conditions: Breast Cancer, 48 h
[6] = tested on: MOLT-4; assay: NCI-60 DTP Human Tumor Cell Line Screen; assay type: cell-based; conditions: MOLT-4, Leukemia, 48 h
[7] = tested on: MALME-3M; assay: NCI-60 DTP Human Tumor Cell Line Screen; assay type: cell-based; conditions: Melanoma, 48 h
[8] = tested on: ACHN; assay: NCI-60 DTP Human Tumor Cell Line Screen; assay type: cell-based; conditions: Renal Cancer, 48 h
[9] = tested on: SK-OV-3; assay: NCI-60 DTP Human Tumor Cell Line Screen; assay type: cell-based; conditions: SK-OV-3, Ovarian Cancer, 48 h
[10] = tested on: NCI-H322M; assay: NCI-60 DTP Human Tumor Cell Line Screen; assay type: cell-based; conditions: Non-Small Cell Lung Cancer, 48 h
[11] = tested on: UACC-62; assay: NCI-60 DTP Human Tumor Cell Line Screen; assay type: cell-based; conditions: UACC-62, Melanoma, 48 h
[12] = tested on: OVCAR-4; assay: NCI-60 DTP Human Tumor Cell Line Screen; assay type: cell-based; conditions: OVCAR-4, Ovarian Cancer, 48 h
[13] = In vivo tolerance study, intraperitoneal dosing; parameters: species or system Balb/C mice; conditions: listed as clodronate prodrug
Experimental: Thirteen Balb/C mice were split into four groups; untreated, vehicle, dose 1 and dose 2. Untreated mice received no treatment or injection. The vehicle was 100 μL of corn oil. Mice receiving dose 1 received 100 μL of 30 mM clodronate prodrug dissolved in corn oil (2.17 mg/dose), which is about 110 mg/kg dose. Mice receiving dose 2 received 100 μL of 50 mM clodronate prodrug dissolved in corn oil (3.61 mg/dose), which is about a 200 mg/kg dose. Mice were dosed on Monday of each week for two weeks. The weights were measured for 4 consecutive days following dosing.

[14] = tested on: U251; assay: NCI-60 DTP Human Tumor Cell Line Screen; assay type: cell-based; conditions: U251, CNS Cancer, 48 h
[15] = tested on: 786-0; assay: NCI-60 DTP Human Tumor Cell Line Screen; assay type: cell-based; conditions: 786-0, Renal Cancer, 48 h
[16] = tested on: M14; assay: NCI-60 DTP Human Tumor Cell Line Screen; assay type: cell-based; conditions: M14, Melanoma, 48 h
[17] = tested on: K-562; assay: NCI-60 DTP Human Tumor Cell Line Screen; assay type: cell-based; conditions: K-562, Leukemia, 48 h
[18] = tested on: NCI/ADR-RES; assay: NCI-60 DTP Human Tumor Cell Line Screen; assay type: cell-based; conditions: Ovarian Cancer, 48 h
[19] = tested on: NCI-H23; assay: NCI-60 DTP Human Tumor Cell Line Screen; assay type: cell-based; conditions: NCI-H23, Non-Small Cell Lung Cancer, 48 h
[20] = tested on: COLO 205; assay: NCI-60 DTP Human Tumor Cell Line Screen; assay type: cell-based; conditions: COLO 205, Colon Cancer, 48 h

CN(CCCCCl)P(=O)(OCc1ccc([N+](=O)[O-])cc1)C(Cl)(Cl)P(=O)(OCc1ccc([N+](=O)[O-])cc1)N(C)CCCCCl (stereo not drawn) [compound 14]
Log10GI50 [1]: −5.50
Log10LC50 [1]: >−4.00
Log10TGI [1]: −4.38
EC50 [2]: 9 µM
Log10GI50 [3]: −5.42
Log10LC50 [3]: >−4.00
Log10TGI [3]: >−4.00
Log10GI50 [4]: −5.54
Log10LC50 [4]: >−4.00
Log10TGI [4]: >−4.00
Log10GI50 [5]: −5.27
Log10LC50 [5]: >−4.00
Log10TGI [5]: >−4.00
Log10GI50 [6]: −5.53
Log10LC50 [6]: >−4.00
Log10TGI [6]: −5.04
Log10GI50 [7]: −5.39
Log10LC50 [7]: >−4.00
Log10TGI [7]: >−4.00
Log10GI50 [8]: −5.49
Log10LC50 [8]: >−4.00
Log10TGI [8]: >−4.00
Log10GI50 [9]: −5.19
Log10LC50 [9]: >−4.00
Log10TGI [9]: >−4.00
Log10GI50 [10]: −5.34
Log10LC50 [10]: >−4.00
Log10TGI [10]: >−4.00
Log10GI50 [11]: −5.70
Log10LC50 [11]: −4.11
Log10TGI [11]: −5.30
Log10GI50 [12]: −5.54
Log10LC50 [12]: >−4.00
Log10TGI [12]: >−4.00
Wt ([13]; Dose 1 (about 110 mg/kg i.p.), week 1, Apr. 11, 2011, individual mice): 19.2 g and 18.3 g and 19.4 g
Wt ([13]; Dose 1, 2nd week of treatment, Apr. 18, 2011): 19.3 g and 18.8 g and 18.4 g
Wt ([13]; Dose 1, 2nd week, Apr. 19, 2011): 19.3 g and 18.9 g and 18.3 g
Wt ([13]; Dose 1, 2nd week, Apr. 20, 2011): 19.4 g and 18.9 g and 18.4 g
Wt ([13]; Dose 1, 2nd week, Apr. 21, 2011): 19.1 g and 18.9 g and 18.6 g
Wt ([13]; Dose 1, 2nd week, Apr. 22, 2011): 19.3 g and 19.2 g and 18.3 g
Wt ([13]; Dose 1, week 1, Apr. 12, 2011): 19.3 g and 18.1 g and 18.4 g
Wt ([13]; Dose 1, week 1, Apr. 13, 2011): 19.8 g and 18.8 g and 18.7 g
Wt ([13]; Dose 1, week 1, Apr. 14, 2011): 19.8 g and 18.7 g and 19.1 g
Wt ([13]; Dose 1, week 1, Apr. 15, 2011): 19.5 g and 19.01 g and 18.8 g
Wt ([13]; Dose 2 (about 200 mg/kg i.p.), week 1, Apr. 11, 2011, individual mice): 18.7 g and 18.2 g and 19.1 g
Wt ([13]; Dose 2, 2nd week of treatment, Apr. 18, 2011): 19.3 g and 19.1 g and 19.5 g
Wt ([13]; Dose 2, 2nd week, Apr. 19, 2011): 19.1 g and 19.3 g and 19.5 g
Wt ([13]; Dose 2, 2nd week, Apr. 20, 2011): 18.8 g and 19 g
Wt ([13]; Dose 2, 2nd week, Apr. 21, 2011): 19 g and 19.4 g
Wt ([13]; Dose 2, 2nd week, Apr. 22, 2011): 18.9 g and 19.5 g and 20 g
Wt ([13]; Dose 2, week 1, Apr. 12, 2011): 17.8 g and 17.7 g and 18.2 g
Wt ([13]; Dose 2, week 1, Apr. 13, 2011): 19.07 g and 18.8 g
Wt ([13]; Dose 2, week 1, Apr. 14, 2011): 19.03 g and 18.8 g and 19.1 g
Wt ([13]; Dose 2, week 1, Apr. 15, 2011): 18.7 g and 18.2 g and 19.6 g
Log10GI50 [14]: −5.45
Log10LC50 [14]: >−4.00
Log10TGI [14]: >−4.00
Log10GI50 [15]: −5.28
Log10LC50 [15]: >−4.00
Log10TGI [15]: >−4.00
Log10GI50 [16]: −5.40
Log10LC50 [16]: >−4.00
Log10TGI [16]: >−4.00
Log10GI50 [17]: −5.45
Log10LC50 [17]: >−4.00
Log10TGI [17]: >−4.00
Log10GI50 [18]: −5.58
Log10LC50 [18]: >−4.00
Log10TGI [18]: >−4.00
Log10GI50 [19]: −5.58
Log10LC50 [19]: >−4.00
Log10TGI [19]: >−4.00
Log10GI50 [20]: −5.53
Log10LC50 [20]: >−4.00
Log10TGI [20]: −5.10
